Experimental data reported in ChEMBL document CHEMBL4622885, “Rational design, synthesis and biological evaluation of novel multitargeting anti-AD iron chelators with potent MAO-B inhibitory and antioxidant activity” (Bioorg Med Chem, 2020).

Columns and labels:
[1] = Metal chelating activity assessed as Fe3+ complex formation by measuring stability constant for FeI in using pre Fe+3 complexed compound (FeCl3) in 0.1 M KCl :DMSO solution UV-pH titration based spectrophotometric analysis
[2] = Metal chelating activity assessed as Fe3+ complex formation by measuring stability constant for Fe(I)3 in using pre Fe+3 complexed compound (FeCl3) in 0.1 M KCl :DMSO solution UV-pH titration based spectrophotometric analysis
[3] = molecular target: T1, Amine oxidase [flavin-containing] B (Homo sapiens, UniProt P27338); assay: Inhibition of human recombinant MAO-B expressed in baculovirus infected BTI insect cells using kynuramine as substrate incubated for 10 mins followed by substrate addition by fluorimetric analysis
T1 sequence (P27338 whole entry): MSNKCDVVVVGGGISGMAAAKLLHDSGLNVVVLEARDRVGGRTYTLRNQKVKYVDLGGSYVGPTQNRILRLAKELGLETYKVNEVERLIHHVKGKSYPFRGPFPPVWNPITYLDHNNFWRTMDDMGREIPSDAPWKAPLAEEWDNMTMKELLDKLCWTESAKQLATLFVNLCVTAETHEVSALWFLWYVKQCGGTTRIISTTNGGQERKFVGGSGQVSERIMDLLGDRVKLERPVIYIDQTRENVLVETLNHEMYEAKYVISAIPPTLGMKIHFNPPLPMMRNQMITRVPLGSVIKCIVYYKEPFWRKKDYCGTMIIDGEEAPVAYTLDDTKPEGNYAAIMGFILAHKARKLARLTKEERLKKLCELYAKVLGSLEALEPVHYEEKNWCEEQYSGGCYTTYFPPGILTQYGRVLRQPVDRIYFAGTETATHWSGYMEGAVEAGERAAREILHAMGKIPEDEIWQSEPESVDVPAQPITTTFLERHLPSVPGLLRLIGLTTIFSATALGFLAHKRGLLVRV

[4] = Dissociation constant, pKa1 of compound for protonation of the 4-oxo group in 0.1 M KCl incubated for 1 min by UV-pH titration based spectrophotometric analysis; type: physicochemical
[5] = Metal chelating activity assessed as iron chelation
[6] = Dissociation constant, pKa2 of compound for dissociation of the 3-hydroxyl group in 0.1 M KCl incubated for 1 min by UV-pH titration based spectrophotometric analysis; type: physicochemical
[7] = molecular target: T1, Amine oxidase [flavin-containing] B; assay: Inhibition of human recombinant MAO-B expressed in baculovirus infected BTI insect cells using kynuramine as substrate at 100 nM incubated for 10 mins followed by substrate addition by fluorimetric analysis relative to control
[8] = Metal chelating activity assessed as Fe3+ complex formation by measuring stability constant for Fe(I)2 in using pre Fe+3 complexed compound (FeCl3) in 0.1 M KCl :DMSO solution UV-pH titration based spectrophotometric analysis

| SMILES | log(activity) [1] | log(activity) [2] | IC50 [3] | pKa at 1 min [4] | pFe3+ [5] | pKa at 1 min [6] | inhibition at 0.1 µM [7] | log(activity) [8] |
| --- | --- | --- | --- | --- | --- | --- | --- | --- |
| C#CCOc1ccc2cc(C(=O)NCCn3ccc(=O)c(O)c3C)c(=O)oc2c1 | 14.2 | 34.1 | 143 nM | 3.32 | 17.9 | 9.68 | 20.7% | 25.5 |
| Cc1c(O)c(=O)ccn1CCNC(=O)c1cc2ccc(OCC3CCCCC3)cc2oc1=O | 14.3 | 34.7 |  | 3.29 | 18.1 | 9.76 | 44.6% | 25.1 |
| O=C(NCCn1ccc(=O)c(O)c1)c1cc2ccccc2oc1=O | 12.9 | 31.8 | 195 nM | 3 | 18.2 | 8.74 | 46.1% | 23.4 |
| Cc1c(O)c(=O)ccn1CCNC(=O)c1cc2ccc(OCc3ccccc3)cc2oc1=O | 14.1 | 33.2 |  | 3.25 | 16.9 | 9.7 | 30.1% | 24.9 |
| Cc1c(O)c(=O)ccn1CCNC(=O)c1cc2cccc(OCc3ccccc3)c2oc1=O | 14 | 32.9 | 131 nM | 3.28 | 17.2 | 9.58 | 46.5% | 25.4 |
| Cc1ccc2cc(C(=O)NCCn3ccc(=O)c(O)c3C)c(=O)oc2c1 | 14.2 | 34.3 | 163 nM | 3.32 | 17.8 | 9.75 | 44.3% | 25.4 |
| Cc1c(O)c(=O)ccn1CCNC(=O)c1cc2ccc(OCc3ccccc3[N+](=O)[O-])cc2oc1=O | 15.1 | 34.6 | 98.6 nM | 3.24 | 18.2 | 9.74 | 50.6% | 25.9 |
| Cc1c(O)c(=O)ccn1C [DEFERIPRONE] | 14.4 to 15.1 | 34.2 to 37.4 |  | 3.61 to 3.67 | 20.7 | 9.78 to 9.84 |  | 25.7 to 27.4 |
| Cc1c(O)c(=O)ccn1CCC(=O)Nc1cc2ccccc2oc1=O | 13.8 | 33.3 | 160 nM | 3.29 | 17.6 | 9.48 | 43.5% | 24.8 |
| Cc1ccc2oc(=O)c(C(=O)NCCn3ccc(=O)c(O)c3C)cc2c1 | 14.1 | 34.1 |  | 3.33 | 17.9 | 9.67 | 34.8% | 25.4 |
| Cc1c(O)c(=O)ccn1CCNC(=O)c1cc2ccc(O)cc2oc1=O | 13.8 | 34.2 |  | 2.75 | 17.2 | 9.92 | 29.5% | 25.2 |
| COc1ccc2oc(=O)c(C(=O)NCCn3ccc(=O)c(O)c3C)cc2c1 | 14.2 | 32.8 |  | 3.27 | 17.1 | 9.58 | 38.5% | 25.3 |
| COc1ccc2cc(C(=O)NCCn3ccc(=O)c(O)c3)c(=O)oc2c1 | 12.9 | 31.9 |  | 3.07 | 18.3 | 8.74 | 31.3% | 23.4 |
| COc1ccc2cc(C(=O)NCCn3cc(O)c(=O)cc3C)c(=O)oc2c1 | 13.9 | 33 |  | 3.34 | 18.5 | 9.07 | 35.5% | 24.5 |
